According to ChEMBL document CHEMBL1129859, “Synthesis and antibacterial activity of (1R, 5R, 6R)-2-tert-butyl-6-(1-hydroxyethyl)penem-3-carboxylic acid” (Bioorg Med Chem Lett, 1997):
Converted amounts (≈) assume the structure as drawn.

Experiments:
Acinetobacter = assay: Tested in vitro for the antibacterial activity against Acinetobacter sp. strain AC 12; assay type: functional
[1] = Half-life was determined; assay type: ADME; details: human
Citrobacter freundii [2] = assay: Tested in vitro for the antibacterial activity against Citrobacter freundii strain CF 17; assay type: functional
Enterococcus [3] = assay: Tested in vitro for the antibacterial activity against Enterococcus sp. strain 2041; assay type: functional
Enterococcus [4] = assay: Tested in vitro for the antibacterial activity against Enterococcus sp. strain X 66; assay type: functional
Enterobacter cloacae [5] = assay: Tested in vitro for the antibacterial activity against Enterobacter cloacae strain 265 A; assay type: functional
Enterobacter cloacae [6] = assay: Tested in vitro for the antibacterial activity against Enterobacter cloacae strain EB 5; assay type: functional
Escherichia coli [7] = assay: Tested in vitro for the beta lactamase inhibition of Escherichia coli TEM; assay type: functional
Escherichia coli [8] = assay: Tested in vitro for the antibacterial activity against Escherichia coli strain EC 14; assay type: functional
Escherichia coli [9] = assay: Tested in vitro for the antibacterial activity against Escherichia coli strain N 10; assay type: functional
Escherichia coli [10] = assay: Tested in vitro for the antibacterial activity against Escherichia coli strain TEM; assay type: functional
Enterobacter cloacae [11] = assay: Tested in vitro for the beta lactamase inhibition of Enterobacter cloacae; assay type: functional, organism-based
Klebsiella aerogenes [12] = assay: Tested in vitro for the antibacterial activity against Enterobacter aerogenes strain C 32; assay type: functional
Klebsiella aerogenes [13] = assay: Tested in vitro for the antibacterial activity against Enterobacter aerogenes strain EB 17; assay type: functional
Haemophilus influenzae [14] = assay: Tested in vitro for the antibacterial activity against Haemophilus influenzae (b-lac+) strain 76; assay type: functional
Haemophilus influenzae [15] = assay: Tested in vitro for the antibacterial activity against Haemophilus influenzae (b-lac-) strain CL; assay type: functional
Klebsiella [16] = assay: Tested in vitro for the antibacterial activity against Klebsiella sp. strain KAE; assay type: functional
Klebsiella [17] = assay: Tested in vitro for the antibacterial activity against Klebsiella sp. strain X 26; assay type: functional
Klebsiella [18] = assay: Tested in vitro for the antibacterial activity against Klebsiella sp. strain X 68; assay type: functional
Providencia stuartii [19] = assay: Tested in vitro for the antibacterial activity against Providencia stuartii strain PR 33; assay type: functional
Providencia rettgeri = assay: Tested in vitro for the antibacterial activity against Providencia rettgeri strain C 24; assay type: functional
Salmonella [20] = assay: Tested in vitro for the antibacterial activity against Salmonella sp. strain 1335; assay type: functional
Salmonella [21] = assay: Tested in vitro for the antibacterial activity against Salmonella sp. strain X 514; assay type: functional
Serratia marcescens [22] = assay: Tested in vitro for the antibacterial activity against Serratia marcescens strain SE 3; assay type: functional
Serratia marcescens [23] = assay: Tested in vitro for the antibacterial activity against Serratia marcescens strain X 99; assay type: functional
Shigella sonnei = assay: Tested in vitro for the antibacterial activity against Shigella sonnei strain N 9; assay type: functional
[24] = test system: Staphylococcus epidermidis; assay: Tested in vitro for the antibacterial activity against Staphylococcus epidermidis strain 222; assay type: functional
[25] = test system: Staphylococcus epidermidis; assay: Tested in vitro for the antibacterial activity against Staphylococcus epidermidis strain 270; assay type: functional
Streptococcus pyogenes = assay: Tested in vitro for the antibacterial activity against Streptococcus pyogenes strain C 203; assay type: functional
Staphylococcus aureus [26] = assay: Tested in vitro for the antibacterial activity against Staphylococcus aureus strain S 13 E; assay type: functional
Staphylococcus aureus [27] = assay: Tested in vitro for the antibacterial activity against Staphylococcus aureus strain V 41; assay type: functional
Staphylococcus aureus [28] = assay: Tested in vitro for the antibacterial activity against Staphylococcus aureus strain X 1.1; assay type: functional
Staphylococcus aureus [29] = assay: Tested in vitro for the antibacterial activity against Staphylococcus aureus strain X 400; assay type: functional
Streptococcus pneumoniae = assay: Tested in vitro for the antibacterial activity against Streptococcus pneumoniae strain Park I; assay type: functional
Morganella morganii = assay: Tested in vitro for the antibacterial activity against Morganella morganii strain PR 15; assay type: functional
Citrobacter freundii [30] = assay: Tested in vitro for the antibacterial activity against Citrobacter freundii strain CF17; assay type: functional
Providencia stuartii [31] = assay: […] Tested in vitro for the antibacterial activity against Providencia stuartii strain PR 33; assay type: functional

| SMILES | MIC (Acinetobacter) [µg/mL] | MIC (Enterococcus [3]) [µg/mL] | MIC (Enterococcus [4]) [µg/mL] | MIC (Enterobacter cloacae [5]) [µg/mL] | MIC (Enterobacter cloacae [6]) [µg/mL] | IC50 (Escherichia coli [7]) [nM] | MIC (Escherichia coli [8]) [µg/mL] | MIC (Escherichia coli [9]) [µg/mL] | MIC (Escherichia coli [10]) [µg/mL] | IC50 (Enterobacter cloacae [11]) [nM] | MIC (Klebsiella aerogenes [12]) [µg/mL] | MIC (Klebsiella aerogenes [13]) [µg/mL] | MIC (Haemophilus influenzae [14]) [µg/mL] | MIC (Haemophilus influenzae [15]) [µg/mL] | MIC (Klebsiella [16]) [µg/mL] | MIC (Klebsiella [17]) [µg/mL] | MIC (Klebsiella [18]) [µg/mL] | MIC (Providencia rettgeri) [µg/mL] | MIC (Salmonella [20]) [µg/mL] | MIC (Salmonella [21]) [µg/mL] | further results |
| --- | --- | --- | --- | --- | --- | --- | --- | --- | --- | --- | --- | --- | --- | --- | --- | --- | --- | --- | --- | --- | --- |
| C[C@@H](O)[C@H]1C(=O)N2C(C(=O)[O-])=C(C(C)(C)C)S[C@H]12.[K+] | 16 | 32 | 16 | 128 | 128 | 50 | 128 | 64 | 128 | 300 | 128 | 128 | 8 | 8 | 64 | 8 | 64 | 8 | 128 | 32 | half-life [1]: 16 days; MIC (Citrobacter freundii [2]): 128 µg/mL; MIC (Providencia stuartii [19]): 32 µg/mL; MIC (Serratia marcescens [22]): 128 µg/mL; MIC (Serratia marcescens [23]): 128 µg/mL; MIC (Shigella sonnei): 64 µg/mL; MIC [24]: 2 µg/mL; MIC [25]: 0.5 µg/mL; MIC (Streptococcus pyogenes): 0.12 µg/mL; MIC (Staphylococcus aureus [26]): 4 µg/mL; MIC (Staphylococcus aureus [27]): 1 µg/mL; MIC (Staphylococcus aureus [28]): 0.5 µg/mL; MIC (Staphylococcus aureus [29]): 4 µg/mL; MIC (Streptococcus pneumoniae): 0.12 µg/mL; MIC (Morganella morganii): 32 µg/mL |
| CC(C)(O/N=C(\C(=O)N[C@@H]1C(=O)N2C(C(=O)[O-])=C(C[n+]3ccccc3)CS[C@H]12)c1csc(N)n1)C(=O)O [CEFTAZIDIME] | 1 (≈ 1.83 µM) | 16 (≈ 29.3 µM) | 128 (≈ 234 µM) | 32 (≈ 58.5 µM) | 0.12 (≈ 0.22 µM) |  | 0.03 (≈ 0.0549 µM) | 0.06 (≈ 0.11 µM) | 0.03 (≈ 0.0549 µM) |  | 2 (≈ 3.66 µM) | 0.12 (≈ 0.22 µM) | 0.03 (≈ 0.0549 µM) | 0.06 (≈ 0.11 µM) | 0.5 (≈ 0.915 µM) | 0.06 (≈ 0.11 µM) | 0.12 (≈ 0.22 µM) | 0.03 (≈ 0.0549 µM) | 0.25 (≈ 0.457 µM) | 0.06 (≈ 0.11 µM) | MIC (Citrobacter freundii [30]): 0.5 µg/mL (≈ 0.915 µM); MIC (Providencia stuartii [31]): 0.06 µg/mL (≈ 0.11 µM); MIC (Serratia marcescens [22]): 0.06 µg/mL (≈ 0.11 µM); MIC (Serratia marcescens [23]): 0.12 µg/mL (≈ 0.22 µM); MIC (Shigella sonnei): 0.03 µg/mL (≈ 0.0549 µM); MIC [24]: 16 µg/mL (≈ 29.3 µM); MIC [25]: 16 µg/mL (≈ 29.3 µM); MIC (Streptococcus pyogenes): 0.06 µg/mL (≈ 0.11 µM); MIC (Staphylococcus aureus [26]): 64 µg/mL (≈ 117 µM); MIC (Staphylococcus aureus [27]): 8 µg/mL (≈ 14.6 µM); MIC (Staphylococcus aureus [28]): 8 µg/mL (≈ 14.6 µM); MIC (Staphylococcus aureus [29]): 64 µg/mL (≈ 117 µM); MIC (Streptococcus pneumoniae): 0.03 µg/mL (≈ 0.0549 µM); MIC (Morganella morganii): 0.25 µg/mL (≈ 0.457 µM) |
| O=C(O)[C@H]1/C(=C/CO)O[C@@H]2CC(=O)N21 [CLAVULANIC ACID] |  |  |  |  |  | 40 |  |  |  | 100000 |  |  |  |  |  |  |  |  |  |  |  |
| C[C@@H](O)[C@H]1C(=O)N2C(C(=O)[O-])=C(C(C)(C)C)O[C@H]12.[K+] | 8 | 16 | 2 | 32 | 32 | 3000 | 4 | 4 | 4 | 2 | 8 | 32 | 0.5 | 0.5 | 4 | 1 | 2 | 4 | 4 | 1 | MIC (Citrobacter freundii [2]): 16 µg/mL; MIC (Providencia stuartii [19]): 4 µg/mL; MIC (Serratia marcescens [22]): 64 µg/mL; MIC (Serratia marcescens [23]): 16 µg/mL; MIC (Shigella sonnei): 4 µg/mL; MIC [24]: 0.25 µg/mL; MIC [25]: 4 µg/mL; MIC (Streptococcus pyogenes): 0.06 µg/mL; MIC (Staphylococcus aureus [26]): 1 µg/mL; MIC (Staphylococcus aureus [27]): 1 µg/mL; MIC (Staphylococcus aureus [28]): 0.25 µg/mL; MIC (Staphylococcus aureus [29]): 2 µg/mL; MIC (Streptococcus pneumoniae): 0.03 µg/mL; MIC (Morganella morganii): 8 µg/mL |
